Results on six compounds are retold here after ChEMBL document CHEMBL4138229, “Recent discovery of indoleamine-2,3-dioxygenase 1 inhibitors targeting cancer immunotherapy” (Eur J Med Chem, 2018).

In test [1] the target is T1, Indoleamine 2,3-dioxygenase 1 (Homo sapiens, UniProt P14902). The test can be described thus: Inhibition of IDO1 (unknown origin) assessed as reduction in kynurenine production by spectraphotometric assay.
Test [2] deals with T2, Tryptophan 2,3-dioxygenase (Homo sapiens, UniProt P48775). The test can be described thus: Inhibition of human TDO using Trp as substrate after 90 mins by Bridge-IT tryptophan fluorescence assay.
T2 sequence (P48775 whole entry): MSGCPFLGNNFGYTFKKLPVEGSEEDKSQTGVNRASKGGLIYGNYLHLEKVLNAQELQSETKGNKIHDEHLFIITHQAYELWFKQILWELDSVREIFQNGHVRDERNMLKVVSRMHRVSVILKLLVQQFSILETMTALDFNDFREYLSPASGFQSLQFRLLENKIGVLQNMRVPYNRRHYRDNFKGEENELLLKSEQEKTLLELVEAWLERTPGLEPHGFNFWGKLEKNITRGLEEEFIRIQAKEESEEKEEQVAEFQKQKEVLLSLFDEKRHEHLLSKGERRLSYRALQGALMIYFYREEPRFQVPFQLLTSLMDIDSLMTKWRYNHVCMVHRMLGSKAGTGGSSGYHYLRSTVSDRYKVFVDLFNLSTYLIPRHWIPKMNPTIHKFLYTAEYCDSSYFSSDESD
For test [3], the target named is T3, Indoleamine 2,3-dioxygenase 2 (Homo sapiens, UniProt Q6ZQW0).
T3 sequence (Q6ZQW0 whole entry): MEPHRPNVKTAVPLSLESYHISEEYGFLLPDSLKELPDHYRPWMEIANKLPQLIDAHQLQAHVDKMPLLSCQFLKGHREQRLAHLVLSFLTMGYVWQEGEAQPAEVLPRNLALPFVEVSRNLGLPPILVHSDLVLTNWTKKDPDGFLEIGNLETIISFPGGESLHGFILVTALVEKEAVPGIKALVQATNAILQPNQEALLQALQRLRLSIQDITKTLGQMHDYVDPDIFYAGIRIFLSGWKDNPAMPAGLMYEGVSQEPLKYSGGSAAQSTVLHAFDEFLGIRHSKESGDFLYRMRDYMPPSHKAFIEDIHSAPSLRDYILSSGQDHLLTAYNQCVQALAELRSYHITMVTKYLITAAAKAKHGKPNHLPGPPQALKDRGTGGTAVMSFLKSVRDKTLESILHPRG
The test can be described thus: Inhibition of human IDO2 using Trp as substrate after 90 mins by Bridge-IT tryptophan fluorescence assay.

Test [4] deals with T2, Tryptophan 2,3-dioxygenase. The test can be described thus: Inhibition of TDO (unknown origin).
The target of test [5] is T2, Tryptophan 2,3-dioxygenase. The test can be described thus: Inhibition of human TDO expressed in T-REx-293 cells. The class given is cell-based.
The target in test [6] is Indoleamine 2,3-dioxygenase 1 (Mus musculus, UniProt P28776). The test can be described thus: Inhibition of IDO1 in mouse P815 Clone 12 cells assessed as reduction in kynurenine production incubated for 16 to 18 hrs. It counts as cell-based.
Indoleamine 2,3-dioxygenase 1 (Mus musculus, UniProt P28776), sequence (P28776 whole entry): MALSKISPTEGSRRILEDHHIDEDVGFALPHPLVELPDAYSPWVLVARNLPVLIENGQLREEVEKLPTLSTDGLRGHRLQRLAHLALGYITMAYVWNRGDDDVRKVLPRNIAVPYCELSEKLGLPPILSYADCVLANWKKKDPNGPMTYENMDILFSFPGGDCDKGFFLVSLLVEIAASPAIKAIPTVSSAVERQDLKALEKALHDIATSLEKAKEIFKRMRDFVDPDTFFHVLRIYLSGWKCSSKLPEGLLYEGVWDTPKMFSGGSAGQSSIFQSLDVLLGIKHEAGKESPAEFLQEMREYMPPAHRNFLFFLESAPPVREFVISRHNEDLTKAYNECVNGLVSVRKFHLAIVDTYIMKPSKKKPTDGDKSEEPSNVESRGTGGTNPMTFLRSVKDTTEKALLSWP
Test [7] concerns the target T1, Indoleamine 2,3-dioxygenase 1. The test can be described thus: Inhibition of IDO1 (unknown origin) after 60 mins.
Test [8] shares this target. The test can be described thus: Inhibition of IDO1 in human HeLa cells assessed as reduction in kynurenine production. It counts as cell-based.
Test [9] has the same target. The test can be described thus: Inhibition of IDO1 in human HeLa assessed as reduction in kynurenine production. It counts as cell-based.
The target is the same in test [10]. The test can be described thus: Inhibition of human IDO1 assessed as reduction in kynurenine production.

Bounds are passed on as bounds.

T1 sequence (P14902 whole entry): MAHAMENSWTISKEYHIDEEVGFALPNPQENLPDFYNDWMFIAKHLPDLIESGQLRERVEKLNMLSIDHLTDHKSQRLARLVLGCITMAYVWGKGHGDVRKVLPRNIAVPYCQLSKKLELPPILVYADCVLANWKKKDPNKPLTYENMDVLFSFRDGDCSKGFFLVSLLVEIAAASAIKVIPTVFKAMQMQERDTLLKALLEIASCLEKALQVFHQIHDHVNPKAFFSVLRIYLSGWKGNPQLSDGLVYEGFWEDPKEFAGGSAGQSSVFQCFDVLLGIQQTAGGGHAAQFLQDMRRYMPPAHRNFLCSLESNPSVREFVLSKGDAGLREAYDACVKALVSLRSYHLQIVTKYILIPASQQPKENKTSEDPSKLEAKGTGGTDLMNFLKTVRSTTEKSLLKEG

As for `O/N=C(/CCC1CCCCC1)Nc1cccc(Cl)c1`, the IC50 (usually the concentration at which inhibition is half-maximal) in test [1] was under 1000 nM.
For the compound `Cc1ccc(-c2csc3nnc(SCC(=O)Nc4ccc5c(c4)OCO5)n23)cc1`, the IC50 is over 62.5 µM in test [2] and over 250 µM in test [3].
Take `O[C@H](C[C@H]1c2c(F)cccc2-c2cncn21)[C@H]1CC[C@H](O)CC1` [NAVOXIMOD]: the IC50 in [4] came out at 140 nM; in test [5], 1500 nM.
As to `O=C1CC(c2c[nH]c3ccc(F)cc23)C(=O)N1` (stereo unspecified) [PF-06840003], the IC50 in test [4] was over 50000 nM; in test [6], 94 nM.
`CS(=O)(=NC#N)NCCNc1nonc1/C(=N/O)Nc1ccc(F)c(Br)c1` (stereo unspecified): the IC50 in test [7] was 11 nM; in test [8], 1.8 nM.
For the compound `NS(=O)(=O)NC1(CCNc2nonc2/C(=N/O)Nc2ccc(F)c(Br)c2)CC1`, the IC50 in test [9] was determined as 3 nM; in test [10], 18 nM.
